# Results as given in ChEMBL document CHEMBL5385871, “Application and synthesis of thiazole ring in clinically approved drugs” (Eur J Med Chem, 2023).
# Structures can show the parent of a compound that is named as a salt.
# Assays:
# Escherichia coli = assay: Antibacterial activity against Escherichia coli assessed as bacterial growth inhibition; assay type: functional
# Pseudomonas aeruginosa = assay: Antibacterial activity against Pseudomonas aeruginosa assessed as bacterial growth inhibition; assay type: functional
# Streptococcus pneumoniae = assay: Antibacterial activity against Streptococcus pneumoniae assessed as bacterial growth inhibition; assay type: functional
# [1] = Terminal half life in fasted cynomolgus monkey at 3 mg/kg, po measured for 24 hrs by LC-MS/MS analysis; assay type: ADME, organism-based, Macaca fascicularis; settings: in vivo, read-out: beta t1/2 (converted)
# [2] = Terminal half life in fasted Sprague-Dawley rat at 3 mg/kg, po measured for 24 hrs by LC-MS/MS analysis; assay type: ADME, organism-based; settings: in vivo, read-out: beta t1/2 (converted)
# Acetylcholinesterase = Acetylcholinesterase (Homo sapiens, UniProt P22303)
# Acetylcholinesterase, sequence (P22303 whole entry): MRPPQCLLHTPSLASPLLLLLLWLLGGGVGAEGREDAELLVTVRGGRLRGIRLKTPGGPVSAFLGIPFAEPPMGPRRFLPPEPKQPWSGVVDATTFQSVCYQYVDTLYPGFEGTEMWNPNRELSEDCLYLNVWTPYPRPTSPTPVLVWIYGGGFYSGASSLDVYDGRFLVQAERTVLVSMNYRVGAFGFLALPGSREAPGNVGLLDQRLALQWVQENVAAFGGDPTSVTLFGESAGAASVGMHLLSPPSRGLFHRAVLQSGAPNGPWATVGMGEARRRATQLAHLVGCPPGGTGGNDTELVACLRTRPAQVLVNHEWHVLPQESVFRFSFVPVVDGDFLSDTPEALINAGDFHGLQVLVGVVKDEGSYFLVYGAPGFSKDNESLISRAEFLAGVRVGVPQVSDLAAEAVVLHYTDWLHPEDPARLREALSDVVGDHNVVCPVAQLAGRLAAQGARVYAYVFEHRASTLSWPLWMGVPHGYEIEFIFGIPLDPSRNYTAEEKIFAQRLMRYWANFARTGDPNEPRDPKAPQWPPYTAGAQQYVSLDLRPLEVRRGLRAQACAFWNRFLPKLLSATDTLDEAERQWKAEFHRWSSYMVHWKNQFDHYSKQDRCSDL
# Description: Inhibition of AChE (unknown origin)
# Streptococcus pyogenes = assay: Antibacterial activity against Streptococcus pyogenes assessed as bacterial growth inhibition; assay type: functional
# Haemophilus influenzae = assay: Antibacterial activity against Haemophilus influenzae assessed as bacterial growth inhibition; assay type: functional
# [3] = Inhibition of PI3Kalpha H1047R mutant (unknown origin); design: species or system Homo sapiens
# [4] = target: T1, Beta-1 adrenergic receptor (Homo sapiens, UniProt P08588); assay: Inhibition of beta-1 adrenoceptor (unknown origin)
# T1 sequence (P08588 whole entry): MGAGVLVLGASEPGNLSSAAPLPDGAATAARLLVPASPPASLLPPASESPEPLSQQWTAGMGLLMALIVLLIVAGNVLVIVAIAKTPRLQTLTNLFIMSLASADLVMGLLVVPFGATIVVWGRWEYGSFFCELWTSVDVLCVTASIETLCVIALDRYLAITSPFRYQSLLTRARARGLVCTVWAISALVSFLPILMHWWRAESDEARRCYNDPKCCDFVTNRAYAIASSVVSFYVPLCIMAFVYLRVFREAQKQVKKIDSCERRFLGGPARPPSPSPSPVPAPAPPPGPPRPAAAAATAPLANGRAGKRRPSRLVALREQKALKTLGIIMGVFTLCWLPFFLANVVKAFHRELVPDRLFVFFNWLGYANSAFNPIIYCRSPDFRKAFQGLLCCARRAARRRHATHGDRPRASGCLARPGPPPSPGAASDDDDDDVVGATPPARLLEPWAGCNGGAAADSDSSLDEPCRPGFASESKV
# [5] = target: T2, Beta-2 adrenergic receptor (Homo sapiens, UniProt P07550); assay: Inhibition of beta-2 adrenoceptor (unknown origin)
# T2 sequence (P07550 whole entry): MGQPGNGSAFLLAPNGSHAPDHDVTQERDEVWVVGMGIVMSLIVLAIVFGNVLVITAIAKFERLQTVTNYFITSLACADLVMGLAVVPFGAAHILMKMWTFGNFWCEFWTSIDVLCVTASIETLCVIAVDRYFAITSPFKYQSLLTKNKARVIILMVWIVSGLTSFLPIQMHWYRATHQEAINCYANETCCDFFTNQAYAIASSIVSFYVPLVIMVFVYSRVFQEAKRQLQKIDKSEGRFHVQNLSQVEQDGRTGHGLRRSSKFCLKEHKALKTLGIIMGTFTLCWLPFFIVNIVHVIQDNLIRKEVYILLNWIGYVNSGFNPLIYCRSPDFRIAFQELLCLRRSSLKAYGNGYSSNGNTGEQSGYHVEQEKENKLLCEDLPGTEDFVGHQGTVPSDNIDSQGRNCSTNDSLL
# BaF3 = assay: Induction of cell proliferation of mouse BaF3 cells expressing full-length human TPO receptor by WST-1/1-methoxy PMS assay; assay type: functional, cell-based
# [6] = Induction of colony formation of human megakaryocyte from human cord blood CD34-positive cells measured after 10 to 12 days; assay type: functional, cell-based
# Staphylococcus aureus = assay: Antibacterial activity against Staphylococcus aureus assessed as bacterial growth inhibition; assay type: functional
# [7] = system: Staphylococcus epidermidis; assay: Antibacterial activity against Staphylococcus epidermidis assessed as bacterial growth inhibition; assay type: functional
# Enterobacteriaceae = assay: Antibacterial activity against Enterobacteriaceae assessed as bacterial growth inhibition; assay type: functional
# [8] = Antibacterial activity against non-fermentative bacteria assessed as bacterial growth inhibition
# Bacteria = assay: Antibacterial activity against aerobic gram-negative bacteria assessed as bacterial growth inhibition; assay type: functional
# Proteus mirabilis = assay: Antibacterial activity against Proteus mirabilis assessed as bacterial growth inhibition; assay type: functional
# Clostridioides difficile = assay: Antibacterial activity against Clostridium difficile assessed as bacterial growth inhibition; assay type: functional
# Bacteroides fragilis = assay: Antibacterial activity against Bacteroides fragilis assessed as bacterial growth inhibition; assay type: functional
# Neisseria gonorrhoeae = assay: Antibacterial activity against Neisseria gonorrhoeae assessed as bacterial growth inhibition; assay type: functional
# Moraxella catarrhalis = assay: Antibacterial activity against Moraxella catarrhalis assessed as bacterial growth inhibition; assay type: functional
# in vivo [9] = settings: Sprague-Dawley, rat, po, 10 mg/kg
# Description: Half life in fasted Sprague-Dawley rat at 10 mg/kg, po administered via gavage measured for 10 hrs by LC/MS/MS analysis
# [10] = Oral bioavailability in fasted Sprague-Dawley rat at 10 mg/kg administered via gavage measured for 10 hrs by LC/MS/MS analysis; assay type: ADME, organism-based; settings: in vivo
# WiDr = assay: cells; settings: Homo sapiens, 72 h
# Description: Antiproliferative activity against human WiDr cells incubated for 72 hrs by MTT assay
# in vivo [11] = settings: Sprague-Dawley, rat, iv, 10 mg/kg
# Description: Half life in fasted Sprague-Dawley rat at 10 mg/kg, iv measured for 10 hrs by LC/MS/MS analysis
# K562 = assay: cells; settings: Homo sapiens, K562, 72 h
# Description: Antiproliferative activity against human K562 cells incubated for 72 hrs by MTT assay
# [12] = target: Beta-3 adrenergic receptor (Homo sapiens, UniProt P13945); assay: Agonist activity at human beta-3 adrenoceptor expressed in CHO cells assessed as cAMP accumulation incubated for 10 mins by radioimmunoassay; assay type: functional, cell-based
# Beta-3 adrenergic receptor, sequence (P13945 whole entry): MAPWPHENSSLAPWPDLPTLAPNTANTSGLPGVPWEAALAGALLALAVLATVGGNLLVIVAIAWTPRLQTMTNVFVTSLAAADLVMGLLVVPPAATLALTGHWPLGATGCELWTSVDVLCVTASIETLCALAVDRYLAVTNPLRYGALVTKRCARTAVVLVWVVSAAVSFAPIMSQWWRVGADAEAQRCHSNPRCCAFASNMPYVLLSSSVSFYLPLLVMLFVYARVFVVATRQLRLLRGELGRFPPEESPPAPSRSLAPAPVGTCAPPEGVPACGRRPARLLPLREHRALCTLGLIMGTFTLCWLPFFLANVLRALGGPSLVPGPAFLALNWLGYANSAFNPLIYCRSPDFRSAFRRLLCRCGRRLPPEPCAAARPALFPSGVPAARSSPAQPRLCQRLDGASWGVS
# [13] = target: T1, Beta-1 adrenergic receptor; assay: Agonist activity at human beta-1 adrenoceptor expressed in CHO cells assessed as cAMP accumulation incubated for 10 mins by radioimmunoassay; assay type: functional, cell-based
# Urinary bladder = assay: Ex vivo relaxant activity against CCh-induced contraction in rat urinary bladder smooth muscle strips relative to control; assay type: functional
# [14] = target: T2, Beta-2 adrenergic receptor; assay: Agonist activity at human beta-2 adrenoceptor expressed in CHO cells assessed as cAMP accumulation incubated for 10 mins by radioimmunoassay; assay type: functional, cell-based
# [15] = Inhibition of proliferation in Giardia lamblia trophozoites; assay type: functional, Giardia duodenalis
# D(3) dopamine receptor = D(3) dopamine receptor (Homo sapiens, UniProt P35462)
# D(3) dopamine receptor, sequence (P35462 whole entry): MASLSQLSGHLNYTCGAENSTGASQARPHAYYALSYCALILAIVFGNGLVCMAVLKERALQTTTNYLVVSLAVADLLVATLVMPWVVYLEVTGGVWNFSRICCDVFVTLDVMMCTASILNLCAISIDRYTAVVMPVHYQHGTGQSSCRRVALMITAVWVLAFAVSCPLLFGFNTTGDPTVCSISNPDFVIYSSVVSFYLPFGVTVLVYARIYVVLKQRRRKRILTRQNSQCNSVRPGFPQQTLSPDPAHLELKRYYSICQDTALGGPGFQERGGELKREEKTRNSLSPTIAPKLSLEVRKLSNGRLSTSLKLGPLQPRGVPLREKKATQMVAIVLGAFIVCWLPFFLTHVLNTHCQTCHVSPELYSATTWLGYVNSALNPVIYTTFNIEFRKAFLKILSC
# Description: Binding affinity to human D3 receptor assessed as inhibition constant
# [16] = Inhibition of P-gp-mediated extrusion of [14C]saquinavir in porcine BCEC cells measured after 5 mins by scintillation counting method; assay type: cell-based, Sus scrofa; settings: brain capillary endothelial cell
compound,measurement,setting,value
CO/N=C(\C(=O)N[C@@H]1C(=O)N2C(C(=O)[O-])=C(C[N+]3(C)CCCC3)CS[C@H]12)c1csc(N)n1,MIC,Escherichia coli,≤ 0.007 µg/mL
same,MIC,Pseudomonas aeruginosa,> 0.06 µg/mL
same,MIC,Streptococcus pneumoniae,0.007 µg/mL
COc1ccc2c(O[C@@H]3C[C@H]4C(=O)N[C@]5(C(=O)NS(=O)(=O)C6CC6)C[C@H]5/C=C\CCCCN(C)C(=O)[C@@H]4C3)cc(-c3nc(C(C)C)cs3)nc2c1C,half-life,[1],4.1 h
same,half-life,[2],1.5 h
COc1cc(O)c(C(=O)Nc2nc(C(=O)NCCN(C(C)C)C(C)C)cs2)cc1OC,IC50,Acetylcholinesterase,1790 nM
C=CC1=C(C(=O)O)N2C(=O)[C@@H](NC(=O)/C(=N\O)c3csc(N)n3)[C@H]2SC1,MIC,Streptococcus pyogenes,≤ 0.004 µg/mL
same,MIC,Streptococcus pneumoniae,0.006 µg/mL
same,MIC,Haemophilus influenzae,0.05 µg/mL
Cc1nc(NC(=O)N2CCC[C@H]2C(N)=O)sc1-c1ccnc(C(C)(C)C(F)(F)F)c1 [ALPELISIB],IC50,[3],~4 nM
CC(C)(C)NCC(O)CSc1nc(-c2ccc(C(N)=O)s2)cs1 (centres undefined) [AROTINOLOL],Ki,[4],0.182 nM
same,Ki,[5],0.55 nM
O=C(Nc1nc(-c2cc(Cl)cs2)c(N2CCN(C3CCCCC3)CC2)s1)c1cnc(N2CCC(C(=O)O)CC2)c(Cl)c1 [AVATROMBOPAG],EC50,BaF3,3.3 nM
same,EC50,[6],25 nM
C[C@H]1[C@H](NC(=O)/C(=N\OC(C)(C)C(=O)O)c2csc(N)n2)C(=O)N1S(=O)(=O)O [AZTREONAM],MIC,Streptococcus pyogenes,≥ 8 µg/mL
same,MIC,Staphylococcus aureus,≥ 8 µg/mL
same,MIC,[7],8 µg/mL
CC(C)(O/N=C(\C(=O)N[C@@H]1C(=O)N2C(C(=O)[O-])=C(C[N+]3(CCNC(=O)c4ccc(O)c(O)c4Cl)CCCC3)CS[C@H]12)c1csc(N)n1)C(=O)O [CEFIDEROCOL],MIC,Enterobacteriaceae,< 2 µg/mL
same,MIC,[8],< 2 µg/mL
same,MIC,Bacteria,< 2 µg/mL
C=CC1=C(C(=O)O)N2C(=O)[C@@H](NC(=O)/C(=N\OCC(=O)O)c3csc(N)n3)[C@H]2SC1 [CEFIXIME],MIC,Escherichia coli,0.015 µg/mL
same,MIC,Proteus mirabilis,≤ 0.008 µg/mL
same,MIC,Haemophilus influenzae,0.004 µg/mL
CN(C)CCn1nnnc1SCC1=C(C(=O)O)N2C(=O)[C@@H](NC(=O)Cc3csc(N)n3)[C@H]2SC1 [CEFOTIAM],MIC,Clostridioides difficile,> 128 µg/mL
same,MIC,Bacteroides fragilis,≥ 16 µg/mL
same,MIC,Staphylococcus aureus,0.25 µg/mL
COCC1=C(C(=O)O)N2C(=O)[C@@H](NC(=O)/C(=N\OC)c3csc(N)n3)[C@H]2SC1 [CEFPODOXIME],MIC,Streptococcus pyogenes,≤ 0.004 µg/mL
same,MIC,Neisseria gonorrhoeae,0.004 µg/mL
same,MIC,Haemophilus influenzae,≤ 0.03 µg/mL
Nc1nc(/C(=C/CC(=O)O)C(=O)N[C@@H]2C(=O)N3C(C(=O)O)=CCS[C@H]23)cs1 [CEFTIBUTEN],MIC,Streptococcus pneumoniae,0.5 µg/mL
same,MIC,Haemophilus influenzae,0.015 µg/mL
same,MIC,Moraxella catarrhalis,0.5 µg/mL
Cc1nc(Nc2ncc(C(=O)Nc3c(C)cccc3Cl)s2)cc(N2CCN(CCO)CC2)n1.O [DASATINIB],half-life at 10 h,in vivo [9],3.1 h
same,bioavailability,[10],27%
same,IC50,WiDr,< 1 nM
same,half-life at 10 h,in vivo [11],3.3 h
same,IC50,K562,52 nM
Nc1nc(CC(=O)Nc2ccc(CCNC[C@H](O)c3ccccc3)cc2)cs1 [MIRABEGRON],EC50,[12],22.4 nM
same,EC50,[13],≥ 10000 nM
same,Emax,Urinary bladder,94%
same,EC50,[14],≥ 10000 nM
CC(=O)Oc1ccccc1C(=O)Nc1ncc([N+](=O)[O-])s1 [NITAZOXANIDE],IC50,[15],2400 nM
CCCN[C@H]1CCc2nc(N)sc2C1 [PRAMIPEXOLE DIHYDROCHLORIDE],Ki,D(3) dopamine receptor,0.5 nM
CC(C)c1nc(CN(C)C(=O)N[C@H](C(=O)N[C@@H](Cc2ccccc2)C[C@H](O)[C@H](Cc2ccccc2)NC(=O)OCc2cncs2)C(C)C)cs1 [RITONAVIR],IC50,[16],200 nM
